Reference: patent publication US20210401826A1, “ABUSE DETERRENT PHARMACEUTICAL FORMULATIONS” (AVEKSHAN, LLC., priority 2018, published 2021)
Where “and” joins values, the source holds several entries; their conditions need not be identical. Equal values may be shown once. Where a name gives a salt, the structure may show the parent alone. Read-outs that look alike come from different tables or passages of the source.

What was measured:
[1] = Solubility study of naltrexone and methylphenidate in common solvents and household items (visual examination); type: physicochemical
Method: The solubility of naltrexone and methylphenidate was evaluated in various commonly available solvents and household items, including water, cola soft drinks, ethanol, vinegar, nail polish remover, toluene, turpentine, and baking soda solution (see Table 1). The solubility results were determined by visual examination of each solution after warming and several hours of mixing. The solubility results are presented below in Table 1.

[2] = Separation of naltrexone and methylphenidate from a 1:1 mixture using acetone; type: physicochemical; details: for mg NTX / MPH Recovered / % NTX / MPH Recovered / NTX / MPH: Prep. A and B
Method: In this example, equal amounts of methylphenidate and naltrexone (20 mg each) were combined and then separated. To separate the methylphenidate from the naltrexone, only materials representing commonly available household items were used, e.g., acetone (nail polish remover), water, small glass containers, a hot plate and a coffee filter. Three sources of acetone were used, all of which are available to the public, including lab grade acetone, nail polish remover, and acetone heavy-duty cleaner.
Conditions for the separation, such as acetone volume and extraction time, were tested and adjusted.

[3] = 0.2% baking soda solution, aqueous buffer, thermodynamic from solid, read-out: Solubility
[4] = 25:75 acetone:water, aqueous with cosolvent or surfactant or cyclodextrin, thermodynamic from solid, 25:75 Acetone:H2O, read-out: Solubility
[5] = 40% ethanol, aqueous with cosolvent or surfactant or cyclodextrin, thermodynamic from solid, read-out: Solubility
[6] = 50:50 acetone:water, aqueous with cosolvent or surfactant or cyclodextrin, thermodynamic from solid, 50:50 Acetone:H2O, read-out: Solubility
[7] = Coca-Cola, aqueous buffer, thermodynamic from solid, read-out: Solubility
[8] = DMF, organic solvent or mixture, thermodynamic from solid, read-out: Solubility
[9] = DMSO, organic solvent or mixture, thermodynamic from solid, read-out: Solubility
[10] = acetone, organic solvent or mixture, thermodynamic from solid, read-out: Solubility
[11] = acetonitrile, organic solvent or mixture, thermodynamic from solid, read-out: Solubility
[12] = aqueous buffer, thermodynamic from solid, 0.1M Sodium Hydroxide, read-out: Solubility
[13] = canola oil, oil or lipid, thermodynamic from solid, read-out: Solubility
[14] = ethanol, organic solvent or mixture, thermodynamic from solid, read-out: Solubility
[15] = ethyl acetate, organic solvent or mixture, thermodynamic from solid, read-out: Solubility
[16] = hexanes, organic solvent or mixture, thermodynamic from solid, read-out: Solubility
[17] = isopropyl alcohol, organic solvent or mixture, thermodynamic from solid, read-out: Solubility
[18] = methanol, organic solvent or mixture, thermodynamic from solid, read-out: Solubility
[19] = methyl ethyl ketone, organic solvent or mixture, thermodynamic from solid, read-out: Solubility
[20] = mineral spirits, organic solvent or mixture, thermodynamic from solid, read-out: Solubility
[21] = naphtha, organic solvent or mixture, thermodynamic from solid, read-out: Solubility
[22] = simulated gastric fluid, thermodynamic from solid, 0.1M Hydrochloric Acid, read-out: Solubility
[23] = toluene, organic solvent or mixture, thermodynamic from solid, read-out: Solubility
[24] = turpentine, organic solvent or mixture, thermodynamic from solid, read-out: Solubility
[25] = vinegar, aqueous buffer, thermodynamic from solid, read-out: Solubility
[26] = water, thermodynamic from solid, read-out: Solubility
[27] = xylene, organic solvent or mixture, thermodynamic from solid, read-out: Solubility
[28] = Acetone Cleaner 20 mL, listed as MPH, HCl
[29] = Lab Grade Acetone 20 mL, listed as MPH, HCl
[30] = Lab Grade Acetone 50 mL, listed as MPH, HCl
[31] = Nail Polish Remover 20 mL, listed as MPH, HCl
[32] = Nail Polish Remover 50 mL, listed as MPH, HCl
[33] = Acetone Cleaner 20 mL, listed as NTX, HCl
[34] = Acetone Cleaner 50 mL, listed as NTX, HCl
[35] = Lab Grade Acetone 20 mL, listed as NTX, HCl
[36] = Nail Polish Remover 20 mL, listed as NTX, HCl
[37] = Nail Polish Remover 50 mL, listed as NTX, HCl

COC(=O)C(c1ccccc1)C1CCCCN1 (stereo not drawn) [Methylphenidate HCl]
solubility [1, 3]: > 1000 µg/mL
solubility [1, 4]: > 1000 µg/mL
solubility [1, 5]: > 1000 µg/mL
solubility [1, 6]: > 1000 µg/mL
solubility ([1]; Acetone, HCl): >1000 µg/mL
solubility [1, 7]: > 1000 µg/mL
solubility [1, 8]: > 1000 µg/mL
solubility [1, 9]: > 1000 µg/mL
solubility [1, 10]: > 1000 µg/mL
solubility [1, 11]: > 1000 µg/mL
solubility [1, 12]: > 1000 µg/mL
solubility [1, 13]: < 100 µg/mL
solubility [1, 14]: > 1000 µg/mL
solubility [1, 15]: 100 to 500 µg/mL
solubility [1, 16]: 100 to 500 µg/mL
solubility [1, 17]: > 1000 µg/mL
solubility [1, 18]: > 1000 µg/mL
solubility [1, 19]: 500 to 1000 µg/mL
solubility [1, 20]: < 100 µg/mL
solubility [1, 21]: < 100 µg/mL
solubility [1, 22]: > 1000 µg/mL
solubility [1, 23]: < 100 µg/mL
solubility [1, 24]: < 100 µg/mL
solubility [1, 25]: > 1000 µg/mL
solubility [1, 26]: > 1000 µg/mL
solubility [1, 27]: < 100 µg/mL
mg NTX / MPH Recovered ([2]; Acetone Cleaner 20 mL): 15.9 mg
% NTX / MPH Recovered [2, 28]: 79.5% and 79.7%
NTX / MPH [2, 28]: 0.79 mg/mL and 0.80 mg/mL
NTX / MPH ([2]; Acetone Cleaner 50 mL): 0.92 mg/mL
mg NTX / MPH Recovered ([2]; Acetone Cleaner 50 mL): 18.4 mg
% NTX / MPH Recovered ([2]; Acetone Cleaner 50 mL, listed as MPH, HCl): 92.0% and 91.8%
% NTX / MPH Recovered [2, 29]: 76.4% and 73.7%
NTX / MPH [2, 29]: 0.76 mg/mL and 0.74 mg/mL
mg NTX / MPH Recovered [2, 29]: 15.3 mg and 14.7 mg
% NTX / MPH Recovered [2, 30]: 91.5% and 92.4%
NTX / MPH [2, 30]: 0.91 mg/mL and 0.92 mg/mL
mg NTX / MPH Recovered [2, 30]: 18.3 mg and 18.5 mg
mg NTX / MPH Recovered ([2]; Nail Polish Remover 20 mL): 14.6 mg
% NTX / MPH Recovered [2, 31]: 73.0% and 79.4%
NTX / MPH [2, 31]: 0.73 mg/mL and 0.79 mg/mL
mg NTX / MPH Recovered [2, 31]: 15.9 mg
NTX / MPH ([2]; Nail Polish Remover 50 mL, 20 mg each drug combined, listed as MPH, HCl): 0.91 mg/mL and 0.90 mg/mL
% NTX / MPH Recovered [2, 32]: 91.4% and 90.1%
mg NTX / MPH Recovered [2, 32]: 18.3 mg and 18.0 mg
% of methylphenidate extracted ([2]; depending on the volume of acetone used): 73-92%

O=C1CC[C@@]2(O)[C@H]3Cc4ccc(O)c5c4[C@@]2(CCN3CC2CC2)[C@H]1O5 [Naltrexone HCl]
solubility [1, 3]: > 1000 µg/mL
solubility [1, 4]: > 1000 µg/mL
solubility [1, 5]: > 1000 µg/mL
solubility [1, 6]: > 1000 µg/mL
solubility ([1]; Acetone, HCl): <100 µg/mL
solubility [1, 7]: > 1000 µg/mL
solubility [1, 8]: > 1000 µg/mL
solubility [1, 9]: > 1000 µg/mL
solubility [1, 10]: < 100 µg/mL
solubility [1, 11]: 100 to 500 µg/mL
solubility [1, 12]: > 1000 µg/mL
solubility [1, 13]: < 100 µg/mL
solubility [1, 14]: > 1000 µg/mL
solubility [1, 15]: < 100 µg/mL
solubility [1, 16]: < 100 µg/mL
solubility [1, 17]: < 100 µg/mL
solubility [1, 18]: > 1000 µg/mL
solubility [1, 19]: < 100 µg/mL
solubility [1, 20]: < 100 µg/mL
solubility [1, 21]: < 100 µg/mL
solubility [1, 22]: > 1000 µg/mL
solubility [1, 23]: < 100 µg/mL
solubility [1, 24]: < 100 µg/mL
solubility [1, 25]: > 1000 µg/mL
solubility [1, 26]: > 1000 µg/mL
solubility [1, 27]: < 100 µg/mL
% NTX / MPH Recovered [2, 33]: 5.1% and 8.5%
NTX / MPH [2, 33]: 0.05 mg/mL and 0.09 mg/mL
mg NTX / MPH Recovered [2, 33]: 1.02 mg and 1.7 mg
NTX / MPH ([2]; Acetone Cleaner 50 mL): 0.13 mg/mL
% NTX / MPH Recovered [2, 34]: 13.4% and 12.5%
mg NTX / MPH Recovered [2, 34]: 2.68 mg and 2.5 mg
% NTX / MPH Recovered [2, 35]: 5.2% and 6.5%
NTX / MPH [2, 35]: 0.05 mg/mL and 0.06 mg/mL
mg NTX / MPH Recovered [2, 35]: 1.04 mg and 1.3 mg
% NTX / MPH Recovered [2, 36]: 5.6% and 8.6%
NTX / MPH [2, 36]: 0.06 mg/mL and 0.09 mg/mL
mg NTX / MPH Recovered [2, 36]: 1.12 mg and 1.72 mg
NTX / MPH ([2]; Nail Polish Remover 50 mL, 20 mg each drug combined, listed as NTX, HCl): 0.14 mg/mL and 0.15 mg/mL
% NTX / MPH Recovered [2, 37]: 13.8% and 15.4%
mg NTX / MPH Recovered [2, 37]: 2.76 mg and 3.08 mg
